Publication PMC6173696, “Structural properties of a haemophore facilitate targeted elimination of the pathogen Porphyromonas gingivalis” (Nature Communications, 2018)

What was measured:
[1] = tested on: P. gingivalis wild type W83; assay: Time-kill experiment with high and low densities of bacteria, iron limited; assay type: cell-based, Porphyromonas gingivalis
Protocol: Supplementary Figure 22. Time-kill experiment with high and low densities of P. gingivalis wild type W83 in the presence of P8 antibiotic under iron limited condition. (A) Representative planktonic growth curves show control P. gingivalis culture without P8 antibiotic (filled dark blue circle), P8 at 0.5 µM (light blue circle) and 2.5 µM (dash-filled light blue circle) added at the commencement of growth. (B) Representative planktonic growth curves shown control P. gingivalis culture without P8 antibiotic (filled dark blue circle), P8 at 0.5 µM (dash-filled light blue circle) and 2.5 µM (filled light blue circle) added to the exponentially growing cultures.
(1 picture or pasted object on this page, not shown here) […]
1) Fig. 1A still needs confirmation with the inclusion of two additional panels.
(a) Effect of 0.5 µM P8 added to the culture prior to the commencement of growth. (b) Effect of adding 0.5 µM P8 to actively growing cultures of P. gingivalis W83
Response: The growth curve studies, including addition of 0.5µM P8 prior to the commencement of […]
the commencement of growth (low bacteria density).
2.5 µM P8 under the same condition. When added to the actively growing culture (high bacteria density) of P. gingivalis W83, both 0.5 µM and 2.5 µM P8 retard growth with the 2.5 µM P8 treatment achieving a relative lower density at stationary phase. The MIC of P8 is correlated to the initial bacteria densities in the inoculum. Udekwu et al. have reported that higher concentration of antibiotics is required to achieve the MIC when treating higher densities of bacteria albeit with variation according to class of drug […]
As P8 is introduced in the later section of the main text, we have presented the results as Supplementary […]
is not uniform in panel “i”.
3) HSQC spectra for the interaction of HusA with P8 should be provided (analogous to Supplementary
Fig. 18A, where the authors have done a nice job of showing the data down to noise level). Specifically, HSQC superpositions of DPIX and P8 would make for direct comparison. Similarly, the authors would also need to show an HSQC comparison of HusA alone and bound to P8. Indeed, Supplementary Fig. 21 is helpful in analyzing the exchange regimes of a couple of residues, but it doesn't give a global picture of […]

[2] = tested on: H413 gingival epithelial cells; assay type: cell-based, Human; conditions: concentrations above 0.5 µM; 1 h or 2 h
Protocol: As P8 could penetrate epithelial cells, the cell membrane integrity was tested using lactate dehydrogenase (LDH) assay. LDH is readily released following cellular membrane damage. As per manufacturer’s instructions (Thermo Fisher Scientific, Australia), H413 cells were treated with P8 at various concentrations and incubated for 1 h and 2 h, respectively. The drug solubilisation medium DMSO and metronidazole were used as controls. The positive control provided by the manufacturer was used to determine the maximal LDH release and the ratio of corrected values obtained for the experimental groups relative to maximum LDH release represented cytotoxicity. The fluorescence intensity was recorded on SpetraMax® i3 (Molecular Devices, Australia).
Supplementary Figure 23. (A) UV-vis spectra of 10 µM P8 alone and in the presence of 10 µM HusA. (B) Stability assay of P8 in the presence of gingival epithelial cell lysate. The intensity of P8 fluorescence was applied to monitor the stability of P8 in the presence of cell lysate. (C) Confocal microscope analysis of the progressive uptake of P8 by H413 gingival epithelial cell over a 2 h period.
The fluorescent P8 is shown in red and the nuclei stained by DAPI are shown in blue. Scale bar, 25 µm. (D) Lactate dehydrogenase cytotoxicity assay of H413 gingival epithelial cells treated with P8 at various concentrations for 1 h or 2 h incubation. […]

[3] = target: T1, HusA L123N-V124N (Porphyromonas gingivalis, UniProt Q7MSY3, L123N/V124N); assay: Tryptophan fluorescence quenching assay, HusA mutant L123N-V124N; assay type: binding; conditions: mutant LV123/4NN
T1 sequence (Q7MSY3 24-218 L123N/V124N): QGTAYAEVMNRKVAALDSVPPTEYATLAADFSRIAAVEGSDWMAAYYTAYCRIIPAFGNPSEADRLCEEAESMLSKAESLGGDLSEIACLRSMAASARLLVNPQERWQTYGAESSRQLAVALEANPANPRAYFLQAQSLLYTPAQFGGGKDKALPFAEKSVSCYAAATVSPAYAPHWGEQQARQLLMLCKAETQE
Protocol: The quenching of intrinsic tryptophan fluorescence of HusA upon porphyrin additions was measured using a Carey Eclipse Fluorescence Spectrophotometer (Agilent) set to a photo multiplier effect (PME) of 850. A 5-mm path length quartz cuvette was used and all spectra were acquired at room temperature. Excitation was set to 295 nm and emission was measured from 300 nm to 500 nm using excitation/emission slit widths of 5 nm. Binding assays were performed at a protein concentration of 1 μM HusA in standard buffer at a working volume of 0.5 mL. […] The fluorescence quenching of HusA by PPIX was investigated in a similar manner with the following difference: the fluorescence intensities of ten 1 μM HusA samples were measured each with increasing amounts of PPIX after a 2-h incubation period to allow equilibrium to be reached. See Supplementary Methods for correction for inner filter effect and curve fitting. […]
Correction of inner filter effect and curve fitting in tryptophan fluorescence quenching assays The concentration of NATA was chosen such that the raw fluorescence intensity was similar to the 10 uM concentrations of HusA and mutants used. […] Fluorescence intensity was scaled with respect to the starting florescence and corrected for the inner filter effect. Fluorescence at 335 nm was used to fit binding curves. […]

`CC1=Cc2cc3[nH]c(cc4nc(cc5[nH]c(cc1n2)cc5C)C(C)=C4CCC(=O)N[C@@H](CCCCNC(=O)OC(C)(C)C)C(=O)NCCn1c([N+](=O)[O-])cnc1C)c(CCC(=O)O)c3C` [P8] was tested, and the effect on growth ([1]; 0.5 µM P8 added prior to the commencement of growth (low bacteria density), dipyridyl) was “retards the growth”, the effect on growth ([1]; 0.5 µM P8 added to the actively growing culture (high bacteria density)) was “retard growth” and the effect on growth ([1]; 2.5 µM P8 added prior to the commencement of growth, dipyridyl) was “fails to growth”. The effect on growth ([1]; 2.5 µM P8 added to the actively growing culture, relative lower density at stationary phase) was “retard growth” and the “cell toxicity (LDH release)” value [2] was “does not induce cell toxicity”.
In the case of `C=CC1=C(C)c2cc3[nH]c(cc4nc(cc5[nH]c(cc1n2)c(C)c5CCC(=O)O)C(CCC(=O)O)=C4C)c(C)c3C=C.[Fe+3]` [haemin], the “reduction of haemin affinity compared to wild-type” value [3] is reported as over 50%.
